# According to ChEMBL document CHEMBL5696442, “Discovery of type II inhibitors of TGFβ-activated kinase 1 (TAK1) and mitogen-activated protein kinase kinase kinase kinase 2 (MAP4K2)” (J Med Chem, 2015):
# Calls of active or inactive are those of the source. The rule behind the calls is not given here.
# What was measured:
# [1] = target: Microtubule-associated serine/threonine-protein kinase 2 (Homo sapiens) (UniProt Q6P0Q8); assay: Inhibition of MAST2 Lys2 labeling site harbouring DLKPDNLLITSMGHIK in human Huh-7 cells at 1 uM by KiNativ Profiling analysis relative to control; type: cell-based
# [2] = target: T1, Serine/threonine-protein kinase TAO3 (Homo sapiens) (UniProt Q9H2K8); assay: Inhibition of TAO3 Lys2 labeling site in human Huh-7 cells at 1 uM by KiNativ Profiling analysis relative to control; type: cell-based
# T1 sequence (whole entry): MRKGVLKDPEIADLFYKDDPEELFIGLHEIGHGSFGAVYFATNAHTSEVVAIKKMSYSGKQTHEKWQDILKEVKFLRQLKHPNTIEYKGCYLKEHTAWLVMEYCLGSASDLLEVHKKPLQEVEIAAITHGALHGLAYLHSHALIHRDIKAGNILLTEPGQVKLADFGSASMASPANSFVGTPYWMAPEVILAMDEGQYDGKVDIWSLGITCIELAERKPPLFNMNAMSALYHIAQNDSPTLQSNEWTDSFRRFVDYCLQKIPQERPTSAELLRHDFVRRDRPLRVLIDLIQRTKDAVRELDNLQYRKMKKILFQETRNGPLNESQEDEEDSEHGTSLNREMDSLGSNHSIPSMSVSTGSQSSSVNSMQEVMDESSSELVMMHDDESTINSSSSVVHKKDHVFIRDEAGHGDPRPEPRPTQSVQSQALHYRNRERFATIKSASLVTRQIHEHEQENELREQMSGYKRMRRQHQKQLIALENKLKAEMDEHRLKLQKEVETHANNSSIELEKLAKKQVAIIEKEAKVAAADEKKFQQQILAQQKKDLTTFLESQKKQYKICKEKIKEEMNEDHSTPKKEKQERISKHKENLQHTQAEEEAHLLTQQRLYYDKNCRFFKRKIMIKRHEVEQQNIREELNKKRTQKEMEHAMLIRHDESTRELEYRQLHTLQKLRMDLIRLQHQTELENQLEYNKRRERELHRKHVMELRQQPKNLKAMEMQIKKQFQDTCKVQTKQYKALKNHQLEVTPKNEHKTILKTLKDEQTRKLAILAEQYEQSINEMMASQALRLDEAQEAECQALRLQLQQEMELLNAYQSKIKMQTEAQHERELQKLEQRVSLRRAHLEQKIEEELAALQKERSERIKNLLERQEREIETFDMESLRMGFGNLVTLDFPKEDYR
# [3] = target: Rho-associated protein kinase 1 (Homo sapiens) (UniProt Q13464); assay: Inhibition of ROCK1 Lys2 labeling site in human Huh-7 cells at 1 uM by KiNativ Profiling analysis relative to control; type: cell-based
# [4] = target: Serine/threonine-protein kinase WNK1 (Homo sapiens) (UniProt Q9H4A3); assay: Inhibition of Wnk1 Lys2 labeling site in human Huh-7 cells at 1 uM by KiNativ Profiling analysis relative to control; type: cell-based
# [5] = target: Serine/threonine-protein kinase ATR (Homo sapiens) (UniProt Q13535); assay: Inhibition of ATR ATP labeling site in human Huh-7 cells at 10 uM by KiNativ Profiling analysis relative to control; type: cell-based
# [6] = target: T2, Acylglycerol kinase, mitochondrial (Homo sapiens) (UniProt Q53H12); assay: Inhibition of AGK ATP labeling site in human Huh-7 cells at 1 uM by KiNativ Profiling analysis relative to control; type: cell-based
# T2 sequence (whole entry): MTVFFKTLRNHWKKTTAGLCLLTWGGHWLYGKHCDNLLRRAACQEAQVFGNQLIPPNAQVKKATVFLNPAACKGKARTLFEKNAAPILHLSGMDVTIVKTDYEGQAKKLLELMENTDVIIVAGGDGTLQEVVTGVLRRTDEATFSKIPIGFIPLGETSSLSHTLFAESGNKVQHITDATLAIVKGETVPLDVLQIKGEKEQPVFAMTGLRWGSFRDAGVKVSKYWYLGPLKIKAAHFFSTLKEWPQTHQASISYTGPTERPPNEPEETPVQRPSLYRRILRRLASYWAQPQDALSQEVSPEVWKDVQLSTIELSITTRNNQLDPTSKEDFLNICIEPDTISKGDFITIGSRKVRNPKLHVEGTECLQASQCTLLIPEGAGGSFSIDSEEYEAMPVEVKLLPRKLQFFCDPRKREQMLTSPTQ
# [7] = target: Tyrosine-protein kinase ABL1 (Homo sapiens, UniProt P00519); assay: Inhibition of ABL Lys1 labeling site in human A-375 cells at 5 uM by KiNativ Profiling analysis relative to control; type: cell-based
# [8] = target: Casein kinase I isoform delta (Homo sapiens) (UniProt P48730); assay: Inhibition of CK1 delta K2 labeling site in human Huh-7 cells at 1 uM by KiNativ Profiling analysis relative to control; type: cell-based
# [9] = Inhibition of TLK1/2 K2 labeling site in human Huh-7 cells at 1 uM by KiNativ Profiling analysis relative to control; details: condition cancer
# [10] = target: Mitogen-activated protein kinase kinase kinase kinase 4 (Homo sapiens, UniProt O95819); assay: Inhibition of ZC1/HGK K2 labeling site in human Huh-7 cells at 10 uM by KiNativ Profiling analysis relative to control; type: cell-based
# [11] = target: Myosin light chain kinase (Homo sapiens) (UniProt Q32MK0); assay: Inhibition of MLCK (unknown origin) at 10 uM by Ambit Kinomescan binding assay
# [12] = target: T3, Phosphatidylinositol 5-phosphate 4-kinase type-2 gamma (Homo sapiens) (UniProt Q8TBX8); assay: Inhibition of PIP5K2C (unknown origin) at 1 uM by Ambit Kinomescan binding assay relative to control; values are per cent of control
# T3 sequence (whole entry): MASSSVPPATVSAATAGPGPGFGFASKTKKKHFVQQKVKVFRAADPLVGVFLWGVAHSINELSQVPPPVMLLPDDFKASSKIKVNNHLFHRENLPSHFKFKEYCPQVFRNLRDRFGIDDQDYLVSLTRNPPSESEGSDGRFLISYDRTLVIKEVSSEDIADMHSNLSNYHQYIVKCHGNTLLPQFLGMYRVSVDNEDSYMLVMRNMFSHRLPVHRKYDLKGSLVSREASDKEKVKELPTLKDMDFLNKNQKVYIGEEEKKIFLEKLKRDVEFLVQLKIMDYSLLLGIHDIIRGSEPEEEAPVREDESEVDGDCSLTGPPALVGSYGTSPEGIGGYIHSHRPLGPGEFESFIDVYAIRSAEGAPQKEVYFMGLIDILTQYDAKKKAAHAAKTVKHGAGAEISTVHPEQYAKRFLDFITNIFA
# [13] = target: Calcium/calmodulin-dependent protein kinase kinase 2 (Homo sapiens) (UniProt Q96RR4); assay: Inhibition of CAMKK2 (unknown origin) at 1 uM by Ambit Kinomescan binding assay relative to control; values are per cent of control
# [14] = target: Megakaryocyte-associated tyrosine-protein kinase (Homo sapiens) (UniProt P42679); assay: Inhibition of CTK (unknown origin) at 1 uM by Ambit Kinomescan binding assay relative to control; values are per cent of control
# [15] = target: T1, Serine/threonine-protein kinase TAO3 (Homo sapiens); assay: Inhibition of TAO3 Lys2 labeling site in human A-375 cells at 5 uM by KiNativ Profiling analysis relative to control; type: cell-based
# Chain of Mitogen-activated protein kinase kinase kinase kinase 4 (O95819 2-1239 limits assumed): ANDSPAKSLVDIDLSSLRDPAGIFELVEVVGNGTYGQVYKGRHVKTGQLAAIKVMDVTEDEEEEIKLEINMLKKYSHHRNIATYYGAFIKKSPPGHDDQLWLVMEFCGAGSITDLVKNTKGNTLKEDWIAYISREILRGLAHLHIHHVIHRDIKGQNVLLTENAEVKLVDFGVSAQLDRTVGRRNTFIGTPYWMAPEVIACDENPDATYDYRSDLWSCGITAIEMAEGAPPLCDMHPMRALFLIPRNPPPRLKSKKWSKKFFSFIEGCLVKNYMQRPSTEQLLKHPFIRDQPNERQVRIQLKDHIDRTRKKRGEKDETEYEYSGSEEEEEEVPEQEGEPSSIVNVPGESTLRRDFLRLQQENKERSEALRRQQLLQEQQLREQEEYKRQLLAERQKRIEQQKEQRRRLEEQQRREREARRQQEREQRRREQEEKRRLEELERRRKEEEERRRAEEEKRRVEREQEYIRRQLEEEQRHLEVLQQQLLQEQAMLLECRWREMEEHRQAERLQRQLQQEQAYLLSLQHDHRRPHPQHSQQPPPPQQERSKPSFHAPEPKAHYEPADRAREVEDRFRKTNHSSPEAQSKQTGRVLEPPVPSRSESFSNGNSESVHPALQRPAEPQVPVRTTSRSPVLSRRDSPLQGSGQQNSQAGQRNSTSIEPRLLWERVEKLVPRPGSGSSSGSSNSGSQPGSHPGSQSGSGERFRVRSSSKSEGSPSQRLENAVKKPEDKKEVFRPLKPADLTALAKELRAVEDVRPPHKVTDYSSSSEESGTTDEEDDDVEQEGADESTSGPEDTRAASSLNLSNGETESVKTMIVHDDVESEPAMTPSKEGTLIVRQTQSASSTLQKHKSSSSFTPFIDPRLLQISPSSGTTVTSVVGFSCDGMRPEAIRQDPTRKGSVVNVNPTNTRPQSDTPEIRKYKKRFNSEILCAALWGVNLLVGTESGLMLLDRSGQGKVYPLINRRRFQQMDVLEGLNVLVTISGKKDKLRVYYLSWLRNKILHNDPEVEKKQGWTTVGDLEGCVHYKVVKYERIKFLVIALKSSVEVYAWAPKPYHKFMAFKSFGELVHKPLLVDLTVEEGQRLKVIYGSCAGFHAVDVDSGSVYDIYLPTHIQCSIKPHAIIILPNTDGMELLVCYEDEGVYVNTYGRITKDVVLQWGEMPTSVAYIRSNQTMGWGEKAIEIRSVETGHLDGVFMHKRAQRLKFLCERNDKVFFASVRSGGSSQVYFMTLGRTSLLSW
# Chain of Casein kinase I isoform delta (Homo sapiens) (P48730 whole entry, looked up, canonical isoform): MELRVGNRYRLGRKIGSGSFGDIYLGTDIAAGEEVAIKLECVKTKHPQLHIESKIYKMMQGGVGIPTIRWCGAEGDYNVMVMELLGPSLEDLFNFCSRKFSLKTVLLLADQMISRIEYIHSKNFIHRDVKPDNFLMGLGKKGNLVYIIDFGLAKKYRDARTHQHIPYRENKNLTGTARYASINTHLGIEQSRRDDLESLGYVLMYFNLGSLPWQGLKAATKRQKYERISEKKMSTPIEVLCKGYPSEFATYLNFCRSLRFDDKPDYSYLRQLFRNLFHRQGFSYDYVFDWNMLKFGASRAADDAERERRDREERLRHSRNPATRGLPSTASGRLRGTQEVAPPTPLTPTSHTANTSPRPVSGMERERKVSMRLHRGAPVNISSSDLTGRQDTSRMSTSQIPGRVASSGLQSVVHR
# Chain of Rho-associated protein kinase 1 (Homo sapiens) (Q13464 2-1354 limits assumed): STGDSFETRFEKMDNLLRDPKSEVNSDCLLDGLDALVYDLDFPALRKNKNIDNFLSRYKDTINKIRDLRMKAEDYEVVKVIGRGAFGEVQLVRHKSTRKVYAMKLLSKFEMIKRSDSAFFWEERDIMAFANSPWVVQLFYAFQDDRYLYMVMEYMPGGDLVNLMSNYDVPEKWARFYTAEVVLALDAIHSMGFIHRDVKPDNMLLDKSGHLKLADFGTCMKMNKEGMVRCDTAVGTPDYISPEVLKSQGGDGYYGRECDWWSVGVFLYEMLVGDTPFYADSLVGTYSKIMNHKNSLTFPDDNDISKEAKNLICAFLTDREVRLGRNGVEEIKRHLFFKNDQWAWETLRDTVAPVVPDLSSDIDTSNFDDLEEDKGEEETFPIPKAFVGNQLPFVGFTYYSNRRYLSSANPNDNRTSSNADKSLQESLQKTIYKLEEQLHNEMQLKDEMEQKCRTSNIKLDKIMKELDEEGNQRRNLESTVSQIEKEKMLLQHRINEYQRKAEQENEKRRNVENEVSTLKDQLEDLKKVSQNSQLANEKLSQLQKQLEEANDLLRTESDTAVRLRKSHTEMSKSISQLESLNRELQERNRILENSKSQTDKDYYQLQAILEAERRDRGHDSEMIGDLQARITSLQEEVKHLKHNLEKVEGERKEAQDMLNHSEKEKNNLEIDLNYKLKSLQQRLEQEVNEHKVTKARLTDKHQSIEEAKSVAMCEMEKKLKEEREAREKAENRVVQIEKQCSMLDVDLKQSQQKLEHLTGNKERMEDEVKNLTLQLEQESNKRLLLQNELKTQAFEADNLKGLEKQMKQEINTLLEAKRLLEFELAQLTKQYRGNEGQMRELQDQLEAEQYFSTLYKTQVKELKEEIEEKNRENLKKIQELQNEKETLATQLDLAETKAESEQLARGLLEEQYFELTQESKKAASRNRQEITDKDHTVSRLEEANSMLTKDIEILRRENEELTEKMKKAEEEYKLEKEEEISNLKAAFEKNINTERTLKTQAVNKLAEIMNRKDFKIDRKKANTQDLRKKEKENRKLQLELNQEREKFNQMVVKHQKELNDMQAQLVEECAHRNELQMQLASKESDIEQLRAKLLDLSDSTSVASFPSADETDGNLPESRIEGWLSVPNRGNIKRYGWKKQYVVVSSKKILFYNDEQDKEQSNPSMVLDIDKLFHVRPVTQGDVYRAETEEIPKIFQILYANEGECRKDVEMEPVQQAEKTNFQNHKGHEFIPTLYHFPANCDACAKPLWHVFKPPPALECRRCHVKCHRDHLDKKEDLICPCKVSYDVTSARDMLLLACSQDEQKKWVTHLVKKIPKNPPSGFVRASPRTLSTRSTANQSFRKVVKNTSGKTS
# Chain of Tyrosine-protein kinase ABL1 (P00519 whole entry, canonical isoform): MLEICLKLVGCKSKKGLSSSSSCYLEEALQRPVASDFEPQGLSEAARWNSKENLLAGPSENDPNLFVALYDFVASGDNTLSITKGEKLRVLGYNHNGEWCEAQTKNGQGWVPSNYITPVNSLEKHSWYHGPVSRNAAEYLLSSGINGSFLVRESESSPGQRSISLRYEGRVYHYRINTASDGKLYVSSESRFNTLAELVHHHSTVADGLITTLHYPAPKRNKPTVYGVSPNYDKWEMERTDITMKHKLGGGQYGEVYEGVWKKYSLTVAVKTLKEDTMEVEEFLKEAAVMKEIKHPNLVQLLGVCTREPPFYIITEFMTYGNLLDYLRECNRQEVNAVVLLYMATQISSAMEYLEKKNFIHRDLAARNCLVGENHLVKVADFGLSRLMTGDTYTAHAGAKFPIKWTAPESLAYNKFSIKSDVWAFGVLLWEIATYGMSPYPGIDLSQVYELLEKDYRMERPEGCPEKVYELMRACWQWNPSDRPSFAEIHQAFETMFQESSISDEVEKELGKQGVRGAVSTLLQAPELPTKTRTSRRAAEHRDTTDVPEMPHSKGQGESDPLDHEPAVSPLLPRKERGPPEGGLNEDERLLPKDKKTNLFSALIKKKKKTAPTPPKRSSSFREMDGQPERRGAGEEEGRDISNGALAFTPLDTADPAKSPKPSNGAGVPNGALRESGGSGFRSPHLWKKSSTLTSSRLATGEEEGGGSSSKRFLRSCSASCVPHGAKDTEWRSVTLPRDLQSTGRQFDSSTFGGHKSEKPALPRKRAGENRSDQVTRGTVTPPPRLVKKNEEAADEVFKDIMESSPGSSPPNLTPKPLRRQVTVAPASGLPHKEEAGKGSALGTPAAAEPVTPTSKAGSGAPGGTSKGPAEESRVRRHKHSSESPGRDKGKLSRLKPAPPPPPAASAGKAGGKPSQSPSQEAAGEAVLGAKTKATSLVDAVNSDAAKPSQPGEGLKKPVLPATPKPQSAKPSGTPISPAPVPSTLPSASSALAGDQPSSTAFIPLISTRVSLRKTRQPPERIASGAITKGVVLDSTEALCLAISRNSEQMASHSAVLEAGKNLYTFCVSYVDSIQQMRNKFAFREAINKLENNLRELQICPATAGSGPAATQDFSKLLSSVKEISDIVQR
# Chain of Myosin light chain kinase (Homo sapiens) (Q32MK0 whole entry): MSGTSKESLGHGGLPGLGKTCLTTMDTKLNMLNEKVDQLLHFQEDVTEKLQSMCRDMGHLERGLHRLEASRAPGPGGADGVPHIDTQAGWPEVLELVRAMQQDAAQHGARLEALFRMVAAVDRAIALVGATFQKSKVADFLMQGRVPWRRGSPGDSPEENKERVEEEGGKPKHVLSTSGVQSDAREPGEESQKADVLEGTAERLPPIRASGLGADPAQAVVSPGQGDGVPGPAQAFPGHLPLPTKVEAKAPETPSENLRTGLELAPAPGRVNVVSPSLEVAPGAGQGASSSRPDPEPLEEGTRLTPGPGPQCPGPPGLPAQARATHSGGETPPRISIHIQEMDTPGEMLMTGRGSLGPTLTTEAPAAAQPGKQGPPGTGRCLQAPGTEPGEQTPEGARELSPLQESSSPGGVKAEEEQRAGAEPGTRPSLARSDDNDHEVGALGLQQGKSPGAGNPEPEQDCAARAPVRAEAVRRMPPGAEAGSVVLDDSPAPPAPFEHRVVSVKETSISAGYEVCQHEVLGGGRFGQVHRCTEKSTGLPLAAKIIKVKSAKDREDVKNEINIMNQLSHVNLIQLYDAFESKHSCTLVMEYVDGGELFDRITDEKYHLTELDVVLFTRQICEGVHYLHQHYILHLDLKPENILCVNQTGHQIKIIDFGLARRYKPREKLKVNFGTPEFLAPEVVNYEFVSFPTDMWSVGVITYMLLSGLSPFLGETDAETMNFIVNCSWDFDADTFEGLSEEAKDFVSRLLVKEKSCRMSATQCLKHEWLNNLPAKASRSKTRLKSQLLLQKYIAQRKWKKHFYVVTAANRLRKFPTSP
compound,measurement,setting,value
CNc1cc(Oc2cc(C(=O)Nc3cc(N4CCN(C)CC4)cc(C(F)(F)F)c3)ccc2C)ncn1,inhibition,[1],53.8%
same,inhibition,[2],0.4%
same,inhibition,[3],-1%
same,inhibition,[4],15.3%
CCN1CCN(Cc2ccc(NC(=O)c3ccc(C)c(Oc4ccnc5[nH]ccc45)c3)cc2C(F)(F)F)CC1,inhibition,[5],19.8%
same,inhibition,[6],inactive
same,inhibition,[7],86.8%
same,inhibition,[8],18.5%
same,inhibition at 1 µM,[9],-1.1%
same,inhibition,[10],72.6%
same,inhibition,[11],inactive
CCN1CCN(Cc2ccc(NC(=O)c3ccc(C)c(/C=C/c4cnc5[nH]ccc5c4OC)c3)cc2C(F)(F)F)CC1,residual activity,[12],100%
same,residual activity,[13],100%
same,residual activity,[14],60%
same,inhibition,[15],66.2%
